Reference: US20110245323A1, “RIG-Like Helicase Innate Immunity Inhibits VEGF-Induced Tissue Responses” (Yale University, priority 2006, published 2011)

Legend:
Type in all cases: in vivo, mouse
[1] = system: CC10-rtTA-VEGF165 transgenic mice; assay: VEGF-induced mucus metaplasia (PAS staining, BAL MUC5AC); settings: for VEGF-induced mucus metaplasia (PAS stains, BAL MUC5AC accumulation): vs vehicle
Protocol: (§1) To define the effects of Poly(I:C) a number of protocols were employed. In most experiments, a pretreatment-2 week protocol was employed. In these experiments, WT and Tg+ mice were treated with Poly(I:C) (30 μg in 50 lambda unless otherwise indicated; Amersham Biosciences, N.J.) or vehicle control via nasal aspiration and transgene activation was accomplished via the administration of dox (0.5 mg/ml) in the animal's drinking water 24 hours later. The Poly(I:C) was administered every other day and the dox was administered continuously for up to 2 weeks.
Lastly, in selected experiments post-transgene activation protocols were employed. In these experiments dox was administered for 2 days or 2 weeks. The Poly(I:C) was then administered via intranasal aspiration every other day for 2 weeks as disclosed elsewhere herein. In selected pre-treatment and post-transgene activation experiments, unmethylated CpG (CpG-B) (Keck Center, Yale University) was also employed at similar doses. At the end of these intervals, assessments of angiogenesis (anti-CD31 immunohistochemistry), vascular permeability (Evan's blue dye extravasation, wet to dry lung weight measurements, BAL protein concentration), BAL and tissue inflammatory cell infiltration and mucus metaplasia (periodic acid-Schiff (PAS) staining, MUC5AC immunoblotting) were undertaken. In all cases experiments were designed to compare Tg− and Tg+ mice on normal water and Tg− and Tg+ mice on dox water.
The lungs were removed en bloc as described elsewhere herein, inflated at 25 cm pressure with PBS containing 0.5% low melting point agarose gel, fixed in Streck solution (Streck Laboratories, La Vista, Nebr.), embedded in paraffin, sectioned and stained. Hematoxylin and eosin and PAS stains were performed in the Research Histology Laboratory of the Department of Pathology at the Yale University School of Medicine. Pulmonary hemorrhage was evaluated by quantitating BAL red blood cell number with a Coulter counter (Beckman Coulter).
The levels of MUC5AC, the major airway mucin in BAL fluids, were assessed as previously described (Lee et al., 2008, Am J Respir Cell Mol Biol 39:739-746). In these evaluations, 0.1 ml of BAL fluid was slot blotted onto nitrocellulose membranes using a Minifold II slot blot apparatus (Schleicher & Schuell). After air-drying, the membrane was blocked with 5% skim milk, washed three times and incubated overnight at 4° C. with a monoclonal antibody against Mucin-5AC (45M1; NeoMarkers, Union City, Calif.). After washing, the membranes were incubated for 1 hour at room temperature with horseradish peroxidase-conjugated anti-mouse immunoglobulin (Ig)-G (Pierce). Immunoreactive mucins were detected using a chemiluminescent procedure (ECL Plus Western blotting detection system, Amersham Biosciences) according to instructions from the manufacturer.

MAVS = assay: Poly(I:C) effects in MAVS null mice
Source text: TLR3^−/−-mice were a gift from Dr. Richard A. Flavell (Yale University), MAVS null mice were a gift from Dr Zijian J. Chen (U of Texas Southwestern) (Sun et al., 2006, Immunity 24:633-642), double stranded RNA-dependent protein kinase null mutant mice (PKR^−/−) were a gift from Dr. Bryan R. G. Williams (Cleveland Clinic Foundation) (Yang et al., 1995, Embo J 14:6095-6106) and IFNAR1 null mice were obtained from Dr. Richard Enelow (Dartmouth). These mice were bred with the VEGF Tg+ mice to generate transgenic mice with wild type (+/+) or null (−/−) TLR3, MAVS, PKR or IFNAR1 loci. Thus, in each given experiment, the effects in transgene negative (Tg−) and transgenic (Tg+) mice with WT and null TLR3, MAVS, PKR or IFNAR1 loci were compared.
as §1
OVA sensitization (with alum) and aerosol OVA challenge were undertaken as previously described (Lee et al., 2008, Am J Respir Cell Mol Biol 39:739-746; Lee et al., 2009, J Exp Med 206:1149-1166). The responses in mice that had been treated with Poly(I:C) or vehicle 24 hours before the aerosol challenge were compared. The BAL and tissue responses were evaluated 24 hours after antigen challenge.

[2] = system: Erk, FAK, Akt, and eNOS signaling pathways; assay: VEGF signaling in lung (eNOS/iNOS mRNA, immunoblot of Erk, FAK, Akt, eNOS); settings: Tg+ mice lung
Protocol: These experiments used antibodies specific for Akt or phosphorylated (p) Akt (Danvers Mass.), FAK or pFAK (BioSource, International; Camarillo Calif.), PI3K or pPI3K (Cell Signalling), eNOS and iNOS (Santa Cruz BioTechnology, Santa Cruz Calif., USA) and MUC-5AC (NeoMarkers; Fremont). Western blot analysis was performed using standard protocols and visualized using the ECL system (Amersham Biosciences; Piscataway, N.J.).
Total RNA was isolated from fresh mouse lung with TRIzol reagent (Invitrogen; Carlsbad, Calif.) following the manufacturer's instructions. Quantification of mouse lung mRNA was performed by quantitative real-time PCR using ABI 7500 fast real-time PCR system (Applied Biosystems; Foster City, Calif.) and power SYBR green PCR master mix kit with appropriately specific primers (Applied Biosystems; Foster City, Calif.).
Lung lysates were subjected to immunoblot analysis using antibodies against phosphorylated (p) p-Erk, total Erk, p-Fak; total FAK; p-Akt, total Akt, peNOS and total eNOS (Cell Signaling, Beverly Mass.).

[3] = system: KC/CXCL1 and MIP-2/CXCL14; assay: BAL neutrophil chemotactic chemokines by ELISA; settings: Tg+ mice, pretreatment, 2 weeks
Protocol: (§2) ELISA and activity assay kits for IFNa and IFNβ analysis were purchased from PBL Biomedical Laboratories (Piscataway, N.J.). ELISAs for eotaxin/CCL11, MCP-1/CCL2, KC/CXCL1 and MIP-2/CXCL14 were obtained from R&D Systems (Minneapolis, Minn. USA). Each was performed according to the manufacturer's instructions.

IFN-α and IFN-β = assay: BAL Type I IFNs by ELISA; settings: WT (Tg−) and VEGF Tg+ animals
Protocol: as §2

polyinosinic-polycytidylic acid [Poly(I:C)]
VEGF-stimulated mucus secretion ([1]; Tg+ mice, pretreatment): decreased
VEGF-induced mucus metaplasia (PAS stains, BAL MUC5AC accumulation) ([1]; Tg+ mice, pretreatment): inhibited
VEGF-induced mucus metaplasia (PAS stains, BAL MUC5AC accumulation) ([1]; Tg+ mice, pretreatment, listed as poly(I:C)): significantly decreased
VEGF-induced mucus metaplasia, delayed administration ([1]; given 48 hours or 14 days after dox-induced transgene activation): significant inhibition
lowest dose with significant inhibition of VEGF-induced mucus metaplasia ([1]; pretreatment): 5 µg
dose with maximal inhibition of VEGF-induced mucus metaplasia ([1]; pretreatment, highest dose tested): 30 µg
ability to inhibit VEGF-induced angiogenic, edema, inflammatory and mucus responses in MAVS deficient animals (MAVS; 30 μg pretreatment, 2 weeks): abrogated
induction of Type I IFNs in mice with null MAVS loci (MAVS; BAL IFN-α and IFN-β): significantly ameliorated
inhibitory effects on OVA-induced inflammation in MAVS null animals (MAVS; OVA sensitization and challenge): abrogated
VEGF activation/phosphorylation of Erk, FAK, Akt and eNOS ([2]; 30 μg pretreatment, 2 weeks): significantly decreased
VEGF-induced eNOS and iNOS mRNA accumulation and AKT phosphorylation/activation ([2]; p<0.05): significant decrease
levels of KC/CXCL1 and MIP-2/CXCL14 in BAL [3]: significant increases
production of IFN-α and IFN-β in BAL (IFN-α and IFN-β): potent stimulator
